Experimental data from patent publication US20020193343A1, “Controlled enzymatic degradation of guar galactomannan solutions using enzymatic inhibition” (priority 2000, published 2002).

Legend:
[1] = from 25 degrees C. to 60 degrees C.
Text: The relative amounts of the two forms are dependent on the pH of the solution and can be predicted by the Henderson-Hasselbach equation.

[2] = test system: Aspergillus niger β-mannanase; experiment: Enzyme degradation assay of guar solutions (viscosity reduction, steady shear rheology); assay type: biochemical; conditions: for inhibition of β-mannanase by TRIS variants (zero shear viscosity): 25 mM
Protocol: Enzyme Degradation Assay: Enzyme degradation was conducted with 7 mg/ml purified guar solutions containing 0.2 mg/ml sodium azide and 20 mM of the appropriate buffer. Guar solutions (19 ml) and enzyme stock solution were separately pre-incubated at 25° C. for 15 minutes, followed by the addition of 78.9 μl of enzyme stock solution to 19 ml of guar solution. The final enzyme concentration was 8.3×10^−4 U/ml. The mixture was shaken at an agitation speed of 2 at 25° C. for 1 hour in a New Brunswick gyrotory water bath shaker (Model G76). The enzyme was denatured after 1 hour by placing the enzyme/guar solution in a 90° C. water bath for 10 minutes. Enzyme hydrolysis was conducted at different pH's using various buffers: sodium acetate was used for pH 4 and 5, MES was used for pH 6, sodium phosphate was used for pH 7 and pH 8 and glycine was used for pH 9. If inhibitor, inhibitor variant or NaCl was used, the appropriate amount was added to the guar solution and the pH was readjusted to the appropriate value. […] After incubating each of these solutions at 25° C. for 30 minutes, 78.9 μl of this solution was added to 19 ml of guar solution and the enzymatic degradation of guar was analyzed following known techniques.
Rheology: Steady shear experiments were conducted using a Rheometrics Dynamic Stress Rheometer (DSR II) and a couette fixture with a cup diameter of 31.9 mm, a bob diameter of 29.5 mm and a bob length of 44.25 mm. All experiments were performed at 25° C. and all reported data were reproducible within 10%. Steady shear experiments were performed to determine viscosity, η, as a function of shear rate. […] To analyze a portion of the data, a normalized relative activity was defined using the viscosity data. At a particular pH, the viscosity difference (Δη) between the initial zero shear viscosity and the zero shear viscosity after 1 hour of degradation was used as the reference Δη. […] In summary, [formula]

## NC(CO)(CO)CO [TRIS, 2-amino-2-hydroxymethyl-1,3-propanediol]
[1]
  pH drop on temperature increase: 0.98
[2]; 1 mM TRIS, pH 9, 1 hour
  inhibition of β-mannanase degradation of guar: only minimal inhibition
[2]; 1 mM TRIS, pH 9, 5 hours
  viscosity reduction of guar by β-mannanase: impeded viscosity reduction considerably
[2]; 5 mM TRIS, pH 9, 1 hour
  inhibition of β-mannanase degradation of guar: inhibited the degradation considerably
[2]; 10 mM TRIS, pH 9, 5 hours
  viscosity reduction of guar by β-mannanase: minimal viscosity reduction
[2]; 10 mM and higher TRIS, pH 9, 1 hour
  viscosity reduction of guar by β-mannanase: no viscosity reduction
[2]; 25mM TRIS, pH 9, enzyme 8.3×10^−4 U/ml
  inhibition of enzyme degradation: inhibits enzyme degradation for an extended period of time
[2]; 25 mM and higher TRIS, pH 9, 5 hours
  viscosity reduction of guar by β-mannanase: no viscosity reduction
[2]; TRIS to enzyme molar ratio 1:1 and 5:1, 30 minutes pre-incubation
  inhibition after mixing TRIS with the enzyme solution before addition to guar: neither of these solutions showed any inhibition
[2]; degradation triggered after 5 hours by pH shift
  type of inhibition: reversible inhibitor
[2]; pH 4, 1 hour, 0-25 mM TRIS
  effect on enzymatic hydrolysis by β-mannanase: did not impede enzymatic hydrolysis
[2]; pH 7, low concentrations of TRIS, 1 hour
  inhibition of β-mannanase at pH 7 compared with pH 9: better inhibitor of the enzyme than at pH 9
[2]; pH 8, 1 hour, 7 mg/ml guar, 8.3×10^−4 U/ml enzyme
  viscosity reduction of guar by β-mannanase with TRIS as buffer: negligible reduction in viscosity

## Tris(hydroxymethyl)aminomethane [base form of TRIS]
[2]; base form of TRIS (without any salts)
  inhibition of β-mannanase, base form compared with hydrochloride form: exactly the same as that of TRIS in its hydrochloride form

## [Cl-].[Na+] [NaCl]
[2]; pH 4 and pH 9, same quantities as with TRIS hydrochloride
  effect of added salt on viscosity reduction by the enzyme: did not alter the viscosity reduction

## O=C(O)CNC(CO)(CO)CO [N-tris (hydroxymethyl) methylglycine, reference compound]
[2]; pH 9, 1 hour
  inhibition of β-mannanase by TRIS variants (zero shear viscosity): no inhibition

## O=[N+]([O-])C(CO)(CO)CO [Tris (hydroxymethyl) nitromethane, reference compound]
[2]; pH 9, 1 hour
  inhibition of β-mannanase by TRIS variants (zero shear viscosity): no inhibition
